Data set [1] is described as follows: Half life in mouse liver microsomes at 1 uM measured after 30 mins in presence of NADPH by LC-MS/MS analysis. The conditions noted are these: microsomes, 0.5 h, 1 µM. The class given is ADME, Microsome. A general note: Microsomes from liver hold many membrane-bound enzymes, among them those of drug oxidation.
Data set [2] relates to Plasmodium chabaudi. Put plainly: Antimalarial activity against chloroquine-resistant Plasmodium chabaudi ASCQ infected in NIH mouse assessed as inhibition of parasitemia at 30 mg/kg, po administered once daily for 4 days starting from 4 hrs post-infection and measured on day 4 by Peter's 4 day test relative to control. The class given is functional.
Data set [3] in a line: Half life in mouse at 2 mg/kg, iv by LC-MS analysis. The class given is ADME, organism-based. The conditions noted are these: in vivo.
The subject of data set [4] is Plasmodium chabaudi. Put plainly: Antimalarial activity against chloroquine-resistant Plasmodium chabaudi ASCQ infected in NIH mouse assessed as inhibition of parasitemia at 10 mg/kg, po administered once daily for 4 days starting from 4 hrs post-infection and measured on day 4 by Peter's 4 day test relative to control. The class given is functional.
Data set [5] can be described thus: Apparent volume of distribution in mouse at 2 mg/kg, iv by LC-MS analysis. It counts as ADME, organism-based. The conditions noted are these: in vivo, read-out: Vz.
Data set [6] is described as follows: Apparent clearance in mouse at 2 mg/kg, iv by LC-MS analysis. As to conditions: in vivo, read-out: CL(app). It counts as ADME, organism-based.
In data set [7] the target is Voltage-gated inwardly rectifying potassium channel KCNH2 (Homo sapiens, UniProt Q12809).
Chain of Voltage-gated inwardly rectifying potassium channel KCNH2 (Q12809 whole entry): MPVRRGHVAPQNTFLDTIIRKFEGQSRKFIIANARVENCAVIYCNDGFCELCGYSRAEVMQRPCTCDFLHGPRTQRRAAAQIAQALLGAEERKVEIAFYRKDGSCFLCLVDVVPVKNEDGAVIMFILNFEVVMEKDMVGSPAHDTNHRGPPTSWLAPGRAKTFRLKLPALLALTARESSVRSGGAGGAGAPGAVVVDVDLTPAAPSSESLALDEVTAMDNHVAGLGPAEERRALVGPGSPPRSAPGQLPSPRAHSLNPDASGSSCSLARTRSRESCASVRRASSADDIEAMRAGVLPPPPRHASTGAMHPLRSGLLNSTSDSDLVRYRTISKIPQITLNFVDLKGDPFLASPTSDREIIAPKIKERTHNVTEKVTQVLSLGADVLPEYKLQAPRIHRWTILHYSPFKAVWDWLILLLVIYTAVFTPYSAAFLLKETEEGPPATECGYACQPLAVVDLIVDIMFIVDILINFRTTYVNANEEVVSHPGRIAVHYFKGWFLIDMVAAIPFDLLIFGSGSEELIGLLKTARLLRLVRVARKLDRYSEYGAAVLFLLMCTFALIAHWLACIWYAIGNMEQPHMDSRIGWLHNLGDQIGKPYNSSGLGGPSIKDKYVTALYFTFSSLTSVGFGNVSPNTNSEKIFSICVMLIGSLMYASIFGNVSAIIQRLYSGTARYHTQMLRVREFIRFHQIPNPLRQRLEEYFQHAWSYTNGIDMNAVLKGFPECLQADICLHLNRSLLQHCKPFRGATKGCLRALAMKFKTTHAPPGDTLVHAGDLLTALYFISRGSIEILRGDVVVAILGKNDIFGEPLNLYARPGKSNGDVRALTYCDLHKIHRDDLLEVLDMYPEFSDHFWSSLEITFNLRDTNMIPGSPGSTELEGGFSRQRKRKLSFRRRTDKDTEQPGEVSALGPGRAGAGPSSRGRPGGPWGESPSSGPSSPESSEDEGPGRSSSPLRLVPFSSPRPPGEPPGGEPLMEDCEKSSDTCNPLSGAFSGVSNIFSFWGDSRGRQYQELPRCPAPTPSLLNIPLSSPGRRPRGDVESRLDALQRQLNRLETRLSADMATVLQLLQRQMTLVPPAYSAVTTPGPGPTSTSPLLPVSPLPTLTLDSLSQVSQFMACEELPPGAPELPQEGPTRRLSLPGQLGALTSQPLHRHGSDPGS
Description: Inhibition of Tracer Red binding to human ERG expressed in membranes by fluorescence polarization assay
The nature of data set [8]: Time at which plasma concentration stays above in-vitro antimalarial IC50 for chloroquine-sensitive Plasmodium falciparum 3D7 in NIH mouse infected with chloroquine-resistant Plasmodium chabaudi ASCQ at 30 mg/kg/day, po. The class given is ADME, organism-based. As to conditions: in vivo.
Data set [9] can be described thus: Oral bioavailability in mouse at 5 mg/kg by LC-MS analysis. The conditions noted are these: in vivo.
Data set [10] has as its system Plasmodium falciparum. Kind of data set: Antimalarial activity against multidrug-resistant Plasmodium falciparum Dd2 measured after 72 hrs by SYBR Green 1 dye based fluorescence assay. The class given is functional, organism-based. The conditions noted are these: Dd2, 72 h.
Data set [11] has as its system Plasmodium chabaudi. Put plainly: Antimalarial activity against chloroquine-resistant Plasmodium chabaudi ASCQ infected in po dosed NIH mouse assessed as inhibition of parasitemia administered starting from 4 hrs post-infection by Peter's 4 day test. It counts as functional.
The test system of data set [12] is Plasmodium chabaudi. Put plainly: Antimalarial activity against chloroquine-resistant Plasmodium chabaudi ASCQ infected in NIH mouse assessed as inhibition of parasitemia at 3 mg/kg, po administered once daily for 4 days starting from 4 hrs post-infection and measured on day 4 by Peter's 4 day test relative to control. It counts as functional.
Data set [13] deals with Plasmodium falciparum. Put plainly: microbe, parasite or virus in culture. As to conditions: 3D7, 72 h.
Description: Antimalarial activity against chloroquine-sensitive Plasmodium falciparum 3D7 measured after 72 hrs by SYBR Green 1 dye based fluorescence assay
The nature of data set [14]: Intrinsic clearance in mouse liver microsomes at 1 uM measured after 30 mins in presence of NADPH by LC-MS/MS analysis. As to conditions: 0.5 h. The class given is ADME, Microsome.
The nature of data set [15]: Oral bioavailability in mouse at 5 mg/kg by LC-MS analysis. As to conditions: in vivo. This is another data set of the same source.
The target in a further data set is Beta-secretase 1 (Homo sapiens, UniProt P56817). Kind of data set: Inhibition of recombinant human C-terminal His10-tagged BACE1 using Mca-SEVNLDAEFRK(Dpn)RR-NH2 as substrate measured after 60 mins by TR-FRET assay. Background: In TR-FRET formats the signal depends on donor and acceptor labels being close together.
Chain of Beta-secretase 1 (P56817 whole entry): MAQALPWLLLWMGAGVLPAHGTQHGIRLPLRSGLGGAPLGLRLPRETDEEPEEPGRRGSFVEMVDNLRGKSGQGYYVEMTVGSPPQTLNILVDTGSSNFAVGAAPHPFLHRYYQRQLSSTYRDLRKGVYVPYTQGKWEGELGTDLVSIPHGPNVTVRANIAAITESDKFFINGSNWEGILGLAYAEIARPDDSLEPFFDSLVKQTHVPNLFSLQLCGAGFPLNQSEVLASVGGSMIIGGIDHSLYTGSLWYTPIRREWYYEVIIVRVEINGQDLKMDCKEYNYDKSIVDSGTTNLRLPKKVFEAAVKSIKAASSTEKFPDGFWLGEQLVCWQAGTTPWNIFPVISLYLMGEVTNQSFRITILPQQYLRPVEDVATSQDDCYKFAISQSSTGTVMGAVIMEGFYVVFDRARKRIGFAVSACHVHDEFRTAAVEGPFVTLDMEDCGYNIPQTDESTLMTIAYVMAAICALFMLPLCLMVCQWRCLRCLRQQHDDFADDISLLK
The target of the next data set is Plasmepsin 4 (Plasmodium falciparum, UniProt Q17SB2). Put plainly: Inhibition of Plasmodium falciparum plasmepsin 4 using EDANS-CO-CH2-CH2-CO-ALERMFLSFP-Dap(DABCYL)OH as substrate measured after 60 mins by fluorescence assay.
Chain of Plasmepsin 4 (Q17SB2 whole entry): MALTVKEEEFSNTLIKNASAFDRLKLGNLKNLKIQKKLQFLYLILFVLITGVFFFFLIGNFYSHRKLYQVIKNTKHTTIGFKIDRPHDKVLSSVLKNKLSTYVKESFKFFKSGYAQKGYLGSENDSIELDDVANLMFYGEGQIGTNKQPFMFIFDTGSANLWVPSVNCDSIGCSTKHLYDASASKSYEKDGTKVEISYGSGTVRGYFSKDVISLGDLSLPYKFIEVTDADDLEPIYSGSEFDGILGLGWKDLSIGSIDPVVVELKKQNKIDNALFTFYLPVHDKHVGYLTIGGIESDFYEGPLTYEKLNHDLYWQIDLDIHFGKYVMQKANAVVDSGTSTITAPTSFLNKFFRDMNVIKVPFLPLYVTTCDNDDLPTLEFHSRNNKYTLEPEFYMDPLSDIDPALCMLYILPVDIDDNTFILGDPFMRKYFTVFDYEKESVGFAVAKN
Another data set has as its target Plasmepsin II (Plasmodium falciparum, UniProt P46925). Put plainly: Inhibition of Plasmodium falciparum plasmepsin 2 using EDANS-CO-CH2-CH2-CO-ALERMFLSFP-Dap(DABCYL)OH as substrate measured after 60 mins by fluorescence assay.

Each structure is given as a SMILES string.

Chain of Plasmepsin II (P46925 whole entry): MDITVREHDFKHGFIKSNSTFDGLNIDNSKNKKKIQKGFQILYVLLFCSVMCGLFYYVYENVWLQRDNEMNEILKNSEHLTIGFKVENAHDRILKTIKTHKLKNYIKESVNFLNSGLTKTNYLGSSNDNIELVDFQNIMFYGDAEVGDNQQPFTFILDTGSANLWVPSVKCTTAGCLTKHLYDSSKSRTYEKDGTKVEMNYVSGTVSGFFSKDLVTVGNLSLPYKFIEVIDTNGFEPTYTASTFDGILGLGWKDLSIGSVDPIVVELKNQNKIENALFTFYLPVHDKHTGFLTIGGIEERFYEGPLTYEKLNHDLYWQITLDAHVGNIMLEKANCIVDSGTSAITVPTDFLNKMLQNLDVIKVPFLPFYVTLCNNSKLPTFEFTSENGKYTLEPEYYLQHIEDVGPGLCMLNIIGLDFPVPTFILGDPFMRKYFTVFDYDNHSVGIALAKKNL

A word on the inhibition in vivo: it is how much of the control response was suppressed. For orientation: half-life means the time needed for the level to fall by half in the phase considered. High values mean slow loss, low ones fast loss. Broadly, the IC50 is the concentration needed to halve the response being measured. By bioavailability is commonly meant the share of a dose that reaches the circulation, judged against a reference dose that is usually intravenous. The low end stands for little systemic uptake, the high end for much systemic uptake. Turning to `C[C@H](NC(=O)[C@H]1CNC[C@@H]1c1ccc(C(F)(F)F)cc1)c1ccc(N(C)C)cc1`, the t1/2 in data set [1] worked out at 0.633 h. Further, the inhibition in vivo at 30 mg/kg with Plasmodium chabaudi [2] came to 98.7%. In data set [3], this molecule gave a half-life of 4.4 h. Further, in the data set on Plasmodium chabaudi [4], the inhibition in vivo at 10 mg/kg was found to be 75.2%. Further, the Vd in [5] stood at 1.3 L/kg. In addition, in data set [6], the clearance stood at 3.3 mL/min/kg. Also, the IC50 in data set [7] was 32 µM; in the data set with Plasmodium falciparum [10], 0.021 µM; in the data set on Plasmodium falciparum [13] it was 0.046 to 0.051 µM. Moreover, the Time in data set [8] came to 24 h. In [9], this molecule displayed a bioavailability of 32%. Besides, the ED90 in the data set on Plasmodium chabaudi [11] turned out to be 20 mg/kg/day. The ED99 with Plasmodium chabaudi [11] turned out to be 30 mg/kg/day. The inhibition in vivo at 3 mg/kg in the data set with Plasmodium chabaudi [12] came out at 22.4%.

With `CN(C)c1ccc(CNC(=O)[C@H]2CNC[C@@H]2c2ccc(C(F)(F)F)nc2)cc1` (racemic), the t1/2 in data set [1] came out at 1.17 h. In [3], this molecule showed a half-life of 6.6 h. Also, in data set [5], the Vd worked out at 3.2 L/kg. For the same molecule, the clearance in data set [6] is 5.9 mL/min/kg. The IC50 is 21.7 µM in [7]; above 10 µM on Beta-secretase 1; above 10 µM against Plasmepsin 4; 0.23 to 0.25 µM in the data set with Plasmodium falciparum [13]; above 10 µM at Plasmepsin II. Moreover, the “Intrinsic clearance (CLint)” value in [14] amounted to 3.1 µL/min/mg. In data set [15], this molecule had a bioavailability of 13%.

The values are drawn from ChEMBL document CHEMBL4390670, “4-Aryl Pyrrolidines as a Novel Class of Orally Efficacious Antimalarial Agents. Part 1: Evaluation of 4-Aryl- N-benzylpyrrolidine-3-carboxamides” (J Med Chem, 2019).
